Source: patent US6596771B2, “Drugs for treating viral infections” (priority 2001, dated 2003)
Converted amounts (≈) assume the structure as drawn. Read-outs that look alike come from different tables or passages of the source.

Legend:
cowpox virus [1] = format: cell-based
cowpox virus [2] = format: cell-based; remark: listed apart in the source
Vaccinia Virus [3] = format: cell-based
Vaccinia Virus [4] = format: cell-based; remark: listed apart in the source
cowpox = test system: cowpox; design: species or system female BALB/c mice; conditions: mouse, in vivo
stationary HFF cells = experiment: Neutral Red Uptake Assay (toxicity); format: cell-based, human

| Structure (SMILES) | EC50 (cowpox virus [1]) [microgram/mL] | concentration at which active in these cells (cowpox virus [2]) | EC50 (Vaccinia Virus [3]) [microgram/mL] | EC90 (Vaccinia Virus [3]) [microgram/mL] | EC90 (Vaccinia Virus [4]) [µg/mL] | CC50 (HFF cells) [microgram/mL] | Lung titer on Day 3 (cowpox) | EC90 (cowpox virus [1]) [microgram/mL] | CC50 (stationary HFF cells) [microgram/mL] |
| --- | --- | --- | --- | --- | --- | --- | --- | --- | --- |
| Nc1ccn(C[C@@H](CO)OCP(=O)(O)O)c(=O)n1 [CDV, reference compound] | 2.30 | about 12.0 microgram microgram/mL | 1.80 | – | – | – | – | – | – |
| O=S(=O)(NC12CC3CC(CC(C3)C1)C2)NS(=O)(=O)NC12CC3CC(CC(C3)C1)C2 [Example 1, N,N^1-Bis(tricyclo[3.3.1.1^3,7]dec-1-yl)imidodisulfamide] | – | – | – | 1.40 | 0.15 (≈ 0.338 µM) | 77.80 | – | – | – |
| O=S(=O)([N-]S(=O)(=O)NC12CC3CC(CC(C3)C1)C2)NC12CC3CC(CC(C3)C1)C2.[Na+] [Example 11] | 0.50 | – | 0.04 | 0.11 | – | – | 6.6±1.3 | 2.10 | 87.6 |
